Like-named read-outs stand apart in the source and are kept apart here.
How the values were obtained:
[1] = tested on: Patient-Derived Micro-Organospheres (tumor biopsy); experiment: drug effect screen on Patient-Derived Micro-Organospheres from a patient tumor biopsy; type: cell-based, human; conditions: for percent survival of the Micro-Organospheres in the presence of the drug: Example 3, FIGS. 23B-23C, predicts drug resistance
Excerpt: The Patient-Derived Micro-Organospheres described herein may be used in a variety of different assays, and in particular may be used to determine drug formulation effects, including toxicity, on normal and/or abnormal (e.g., cancerous) tissue. For example, drug screening may include applying Micro-Organospheres into all or some wells of multi-well (e.g., a 96-well) plate. Alternatively custom plates may be used (e.g., a 10,000 micro-well array may be formed of a 100×100 wells). The Micro-Organospheres (e.g., gel droplets) may be applied into, or in some variations onto the multiple microwell arrays and incubated with culture medium. The Micro-Organospheres may be cultured over the course of 3-5 days. In some variations, on day 5, the wells (e.g., micro-reactors) may then be dosed with drug compounds, e.g., based on a set of FDA-approved anticancer drugs, to examine the effects of the drug panel. For example, the drugs texted may be based on the National Cancer Institute (Division of Cancer Treatment and Diagnosis (11)) screen, consisting of 147 agents intended to enable cancer research, drug discovery and combination drug studies. On Day 7, the Micro-Organospheres may be imaged via standard fluorescent microscopy and ranked based on drug response.
In this example, the screening assay may be automated. This may enable repeatable and automated workflow, which may increase the number of drugs screened from a few to hundreds. FIGS. 17A-17E illustrate one example of this workflow. In FIG. 17A, a tumor biopsy is taken and a plurality (e.g., >10,000) Micro-Organospheres are formed as described above (in FIG. 17A the junction region forming the Micro-Organospheres is illustrated).
In a similar set of experiments, Micro-Organospheres were generated from biopsy material (FIG. 23A), and a drug effect screen was performed using the resulting Micro-Organospheres. […] Thus, the Micro-Organospheres correlated strongly with patient response to the standard of care drugs. […]

patient tumor = experiment: actual response of the patient's tumor to drug treatment; type: in vivo, human; conditions: for patient response to treatment: Example 3, treated with both Oxaliplatin and Irinotecan, after 6 months of treatment
[2] = tested on: PDX19187 cells (colorectal cancer); type: cell-based, human; conditions: cell viabilities after 3 days of treatment
Procedure: (§1) Organoids were formed from Patient Derived Xenograft cells (including the PDX240 cells described above and a second PDX cell line, PDX19187) and were compared with Micro-Organospheres formed using the same cells. The organoids were formed using conventional techniques in which a large mass of […] in a well or dish was seeded with cells and cultured until growth was confirmed. Micro-Organospheres were generated from the traditional organoids.
(§2) Both traditional (“bulk”) organoids and the Micro-Organospheres were then treated with the same drugs (e.g., Oxaliplatin or SN38) and cell viabilities were measured after 3 days of treatment.

[3] = tested on: PDX240 cells (colorectal cancer patient derived xenograft); experiment: drug response curves, traditional (bulk) organoids versus Micro-Organospheres, PDX240; type: cell-based, human; conditions: cell viabilities after 3 days of treatment
Excerpt: In some variations, the Micro-Organospheres may be formed from cell lines grown as part of a Patient Derived Xenograft (PDX). For example, FIGS. 28A-28D illustrate Micro-Organospheres formed from cultured PDX240 cells. PDX240 cells are a Patient Derived Xenograft (PDX) tumor cell line (numbered 240 based on patient source) that were human tumors grown in immunodeficient mice (PDX) to form in vivo tumors. The xenograft tissue was extracted dissociated, and used to form Micro-Organospheres as described above. In this example a single cell was included in each Micro-Organospheres as it was formed. […] With progressive time in culture, at least some of the Micro-Organospheres show the cells dividing and forming structures.
as §1, §2

traditional cell line = experiment: traditional (2D) tumor cell line drug assay; type: cell-based; conditions: FIG. 22A; all dose ranges examined; predicts drug resistance
Excerpt: As mentioned above, the Patient-Derived Micro-Organospheres and methods of using them to screen for drug compositions may be used to accurately predict the response of a patient tumor to one or more drug therapies. […] For example, in FIG. 22A-22D, the Micro-Organospheres, but not a cell line, was able to correlate with patient response.

SMILES | percent survival of the Micro-Organospheres in the presence of the drug [1] | patient response to treatment (patient tumor) | drug response curve (cell viability), bulk organoids compared with Micro-Organospheres [3] | also measured
CCc1c2c(nc3ccc(OC(=O)N4CCC(N5CCCCC5)CC4)cc13)-c1cc3c(c(=O)n1C2)COC(=O)[C@]3(O)CC [Irinotecan] | lack of effect | no response |  | 
CCc1c2c(nc3ccc(O)cc13)-c1cc3c(c(=O)n1C2)COC(=O)[C@]3(O)CC [SN38, 7-Ethyl-10-hydroxy-camptothecin] |  |  | comparable responses | drug response curve (cell viability), bulk organoids compared with Micro-Organospheres [2]: comparable responses
O=C1[O][Pt]2([NH][C@@H]3CCCC[C@H]3[NH]2)[O]C1=O [Oxaliplatin] | no change in the percent survival | no response |  | drug effect on traditional cell line (traditional cell line): no effect; drug response curve (cell viability), bulk organoids compared with Micro-Organospheres ([2]; listed as Oxalipalatin): comparable response; cell survival of tumor Micro-Organospheres ([1]; Example 2, FIG. 22B, predicts drug sensitivity): significant decreases in cell survival; tumor response of the patient to treatment (patient tumor; Example 2, FIGS. 22C (before) and 22D (post treatment)): responded to treatment
O=c1[nH]cc(F)c(=O)[nH]1 [5-FU, Fluorouracil] |  |  | comparable responses | 

Reference: patent US20230003716A1, “METHODS AND APPARATUSES FOR PATIENT-DERIVED MICROORGANOSPHERES” (Xilis, Inc., priority 2020, published 2023)
